Assay results as given in patent publication US20180009764A1, “METHOD FOR TREATING MACROPHAGE MIGRATION INHIBITORY FACTOR (MIF)-IMPLICATED DISEASES AND CONDITIONS WITH IODO PYRIMIDINE DERIVATIVES” (UNIVERSITY OF LOUISVILLE RESEARCH FOUNDATION, INC., priority 2009, published 2018).

Tests used:
[1] = system: Chick Chorioallantoic Membrane (CAM); assay: CAM assay with matrigel plugs; type: in vivo
Protocol: (§1) 8 groups with 10 embryos in each group were used in the experiment described below. Fresh fertile eggs were incubated for 3 days in a standard egg incubator at 37° C. for 3 days. On Day 3, eggs were cracked under sterile conditions and embryos were placed into 20×100 mm plastic plates and cultivated at 37° C. in an embryo incubator with a water reservoir on the bottom shelf. Air was continuously bubbled into the water reservoir using a small pump so that the humidity in the incubator is kept constant. On Day 6, a sterile silicon “o” ring was placed on each CAM and test compound dissolved in 0.5% methylcellulose was placed into each “o” ring in a sterile hood. Paclitaxel was used as a positive control. Embryos were returned to the incubator after addition of test material. Control embryos received 10 μL of vehicle alone. On Day 8, embryos were removed from the incubator and kept at room temperature while blood vessel density were determined under each “o” ring using an image capturing system at a magnification of 160×. The blood vessel density was measured using an angiogenesis scoring system in that arithmetic numbers 0 to 5 (or exponential numbers 1 to 32) are used to indicate number of blood vessels present at the treatment sites on the CAM. Number 5 represents the highest density and 0 represents no angiogenesis. The percent of inhibition at each dosing site was calculated using the score recorded for that site divided by the mean score obtained from the appropriate control samples for each individual experiment. The percent of inhibition for each dose of a given compound was calculated by pooling all results obtained for that dose from 8-10 embryos.
Another experiment was performed using a protocol similar to the one described above but using matrigel plugs instead of o ring to deliver the test material to the CAM. Results are summarized in Table 9 below and show a statistically significant inhibition of angiogenesis at the high concentrations of test material.

[2] = system: Chick Chorioallantoic Membrane (CAM); assay: Chick chorioallantoic membrane (CAM) assay, o ring; type: in vivo; conditions: for Blood Vessel Density: o ring
Protocol: as §1

[3] = in vitro; type: in vitro ADME; conditions: human, plasma, Human Plasma Protein Binding % Bound
Excerpt: Plasma protein binding was ascertained using dialysis equilibrium methods known in the art.

[4] = Microsomal stability in human liver microsomes; type: in vitro ADME; conditions: both, human, microsomes, pH 7.4
Protocol: Stability in human liver microsomes was tested over […] at 37° C. using pooled mixed gender human liver microsomes. Liver microsomes were prepared at 1.0 mg/ml of microsomal protein in a 100 mM potassium phosphate pH 7.4 buffer with 1 mM NADPH. The media was incubated at 37° C. with the compound in solution in DMSO. The concentration of the compound was followed by LC/MS-MS as a function of time. Samples were assayed at t=0, 30, 60 and 120 minutes. Testosterone was used as a positive control. The same experiment was performed with mouse liver microsomes instead of human liver microsomes.

[5] = target: T1, MIF (Homo sapiens, UniProt P14174); assay: MIF cell lysate enzymatic inhibition; type: biochemical; conditions: cell lysates
T1 construct: the enzymatic activity of MIF present in cell lysates; endogenous in cells
T1 sequence (P14174 2-115 limits assumed): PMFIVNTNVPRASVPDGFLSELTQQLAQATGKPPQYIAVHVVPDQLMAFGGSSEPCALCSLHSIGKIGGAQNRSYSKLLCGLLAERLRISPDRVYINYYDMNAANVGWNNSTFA
Protocol: Normal or transformed cell lysates can be used to determine the concentration inhibiting the enzymatic activity of MIF present in cell lysates. Cells are cultured in the appropriate media to the required number of cells, collected, and lysed. Compounds to be characterized are solubilized in DMSO and serial dilutions are performed in order to obtain a range of concentrations including complete and no quantifiable inhibition.

[6] = Caco-2 cell permeability and transport; type: in vitro ADME; parameters: Caco-2 Permeability Papp B-A / Caco-2 Permeability Papp A-B: unit not given here; conditions: human, Caco-2, pH 7.4
Protocol: (§2) Cell permeability and transport mechanisms in Caco-2 and MDR1-MDCK monolayers experiments were performed in triplicate in the apical-to-basolateral and basolateral-to-apical direction using […]® wells containing either Caco-2 or MDR1-MDCK monolayers. A modified Hanks buffer pH 7.4 was used in both reservoir and receiver wells with the addition of 1% BSA in the receiver side. Confluent monolayers were used and their integrity was verified using reference compounds (Atenolol as a low permeability reference compound and Propanolol as a high permeability reference compound). A sample in the basolateral and apical sides was taken after 2 hours and the concentration measured by LC/MS-MS.

[7] = system: Caco-2 monolayers; assay: Caco-2 cell permeability and transport; type: in vitro ADME; parameters: Caco-2 Permeability Papp B-A / Caco-2 Permeability Papp A-B: unit not given here; conditions: for Caco-2 Permeability Papp B-A: basolateral-to-apical
Protocol: as §2

[8] = system: Du 145; assay: Inhibition of tumor cells proliferation (CellTiter Glo); type: cell-based; conditions: Homo sapiens, 72 hours
Protocol: Inhibition of the proliferation of tumor cells was investigated in vitro in several tumor cell lines. Cells of the desired tumor cell line were plated at 2×10^5 cells/ml in 96 well plates. Twice the indicated concentrations of the compounds of the invention were added to cells the following day in an equal volume of media. 72 hours later, cells were lysed and subjected to ATP determination using the CellTiter Glo-Luminescent Cell Viability Assay kit (Promega, Madison, Wis.). Experiments were done in triplicate. Results for the inhibition of cells proliferation are reported as IC50 (the concentration leading to a 50% inhibition of proliferation of the cell population) and are listed in Table 6. FIGS. 3 and 4 show bar graphs comparing the IC50s of specific embodiments of compounds of the invention across multiple tumor cell lines.

[9] = system: LOX-IMV1 tumor cell line; assay: Inhibition of cell migration (Oris Cell Migration Assay); type: cell-based; conditions: 72 hrs, even at low concentrations (0.03 μM), FIG. 7
Protocol: The LOX-IMV1 tumor cell line was used to determine the inhibition of cell migration using the Oris Cell Migration Assay kit (Promega, Mich.). Briefly, adherent cells were seeded into each well of the kit according to kit instructions. Concentrations of cells in the migration zone were determined to calculate IC50 values. Prior to the migration assay, cell proliferation IC50s were determined to differentiate between inhibition of proliferation and migration. […] A slightly modified method was also used to determine the inhibition of invasion.

[10] = system: p53; assay: p53 up regulation, p53 luciferase assay; type: cell-based; conditions: 10 μM; FIG. 5
Protocol: The up regulation of p53 was determined using a commercially available p53 luciferase assay kit. 1×10^5 cells/ml were plated in a 24 well plate and allowed to adhere overnight. MIF antagonists were added to the cells at the indicated concentrations for 16 hours and transiently co-transfected with 0.125 μg/well of p53-responsive luciferase promoter plasmid (Promega, Madison, Wis.) together with 0.0125 μg/well Renilla pRL-null plasmid (Promega) using Lipofectamine (Invitrogen) transfection reagent. After 24 hrs, Firefly and Renilla luciferase activities were measured by the Dual Luciferase Reporter Assay System (Promega, Madison, Wis.) on a TD-20/20 luminometer (Turner Designs).

[11] = system: MDR1-MDCK monolayers; assay: MDR1-MDCK cell permeability and transport; type: in vitro ADME
Protocol: as §2

[12] = Pharmacokinetics parameters in rats; type: in vivo; conditions: rat, plasma
Protocol: The pharmacokinetic parameters of several compounds were investigated in rodents. Both oral and iv administration were investigated in rats. Blood samples were collected over time; plasma was analyzed using an LC/MS-MS method. Pharmacokinetic parameters were calculated using Win-NonLin. Terminal plasma half-lives were 7.10 hr for ACT-MIF-001, 1.66 hr for ACT-MIF-002, and 1.50 hr for ACT-MIF-003. […] The volume of distribution values were 72666 mL/kg for ACT-MIF-001, 2118 mL/kg for ACT-MIF-002, and 1926 mL/kg for ACT-MIF-003.

Metabolic Stability in Human Microsomes % Remaining ([4]; 0 h) [%]	Metabolic Stability in Human Microsomes % Remaining ([4]; 1 h) [%]	IC50 [5] [nM]	efflux ratio at 2 h [6]	Caco-2 Permeability Class [7]	IC50 [8] [nM]	SMILES	also measured
100	73	570	–	–	–	CC(=O)Nc1cccc(-c2cc(I)ncn2)c1 [ACT-MIF-021, 4-Iodo-6-(3-acetylaminophenyl)pyrimidine]	–
100	82	250	1.4	High	36700	Ic1cc(-c2cccnc2)ncn1 [ACT-MIF-006, 4-Iodo-6-(pyridin-3-yl)pyrimidine]	Blood Vessel Counts ([1]; 0.3 nM per CAM): 38.8 ± 3.5; Blood Vessel Counts ([1]; 3 nM per CAM): 35.8 ± 5.4; Blood Vessel Counts ([1]; 30 nM per CAM): 33.5 ± 1.7; Inhibition of cell migration [9]: significant inhibition of migration
–	–	270	–	–	< 100000	NC(=O)c1ccc(-c2cc(I)ncn2)cc1 [ACT-MIF-034, 4-Iodo-6-(4-aminocarbonylphenyl)pyrimidine]	p53 regulation [10]: implicated in p53 regulation
–	–	–	–	–	< 40000	Ic1cc(-c2ccsc2)ncn1 [ACT-MIF-022, 4-Iodo-6-(thiophen-3-yl)pyrimidine]	–
–	–	–	0.6	High	–	Fc1ncccc1-c1cc(I)ncn1 [ACT-MIF-011, 4-Iodo-6-(2-fluoropyridin-3-yl)pyrimidine]	–

The remaining lines, values behind:

SMILES	Metabolic Stability in Human Microsomes % Remaining ([4]; 0 h) [%]	Metabolic Stability in Human Microsomes % Remaining ([4]; 1 h) [%]	IC50 [5] [nM]	efflux ratio at 2 h [6]	Caco-2 Permeability Class [7]	IC50 [8] [nM]	also measured
CC(=O)O[C@H]1C(=O)[C@@]2(C)[C@H]([C@H](OC(=O)c3ccccc3)[C@]3(O)C[C@H](OC(=O)[C@H](O)[C@@H](NC(=O)c4ccccc4)c4ccccc4)C(C)=C1C3(C)C)[C@]1(OC(C)=O)CO[C@@H]1C[C@@H]2O [Paclitaxel, reference compound]	–	–	–	–	–	–	Blood Vessel Counts ([1]; 2 nM per CAM): 15.5 ± 2.1; Blood Vessel Density ([2]; 6 nM per CAM): 2.8 ± 0.7
CC(=O)CC(c1ccccc1)c1c(O)c2ccccc2oc1=O (centres unmarked) [Warfarin, reference compound]	–	–	–	–	–	–	fraction unbound [3]: 0.01
Ic1cc(-c2ccnc3ccccc23)ncn1 [ACT-MIF-036, 4-Iodo-6-(quinolin-4-yl)pyrimidine]	–	–	230	–	–	–	–
Ic1cc(-c2cccs2)ncn1 [ACT-MIF-030, 4-Iodo-6-(thiophen-2-yl)pyrimidine]	–	–	–	–	–	–	Blood Vessel Counts ([1]; 0.3 nM per CAM): 35.6 ± 1.0; Blood Vessel Counts ([1]; 3 nM per CAM): 32.7 ± 3.2; Blood Vessel Counts ([1]; 30 nM per CAM): 28.1 ± 2.0; p53 regulation [10]: implicated in p53 regulation
Ic1cc(-c2cncc3ccccc23)ncn1 [ACT-MIF-025, 4-Iodo-6-(isoquinolin-4-yl)pyrimidine]	–	–	–	1.5	Low	–	–
COc1ccc(-c2cc(I)ncn2)c(F)c1F [ACT-MIF-001, 4-Iodo-6-(2,3-difluoro-4-methoxyphenyl)pyrimidine]	100	<2	37	–	Low	< 10000	Caco-2 Permeability Papp A-B ([7]; apical-to-basolateral, pH 7.4, 2 hours): <0.1; Caco-2 Permeability Papp B-A ([7]; pH 7.4, 2 hours): <0.1; fraction unbound [3]: 0.017; Blood Vessel Density ([2]; 0.3 nM per CAM): 10.5 ± 3.4; Blood Vessel Density ([2]; 3 nM per CAM): 4.1 ± 0.8; Blood Vessel Density ([2]; 30 nM per CAM): 1.8 ± 0.3; Anti-angiogenic properties ([2]; CAM assay, in words): high anti-angiogenic properties; Brain penetration classification [11]: Low; P-gp Substrate [11]: No; Efflux ([11]; class in words): Low; Vd ([12]; intravenous, read-out: Volume of distribution): 72.7 L/kg; clearance ([12]; iv, after i.v. administration): 763 mL/min/kg; half-life ([12]; read-out: Terminal plasma half-life (converted)): 7.1 h
Fc1ccc(-c2cc(I)ncn2)c(F)c1 [ACT-MIF-017, 4-Iodo-6-(2,4-difluorophenyl)pyrimidine]	100	0	190	–	–	< 10000	–
CCOc1ccc(-c2cc(I)ncn2)cc1F [ACT-MIF-033]	100	82	115	1.1	High	< 5000	Caco-2 Permeability Papp B-A ([7]; pH 7.4, 2 hours): 3.0; p53 regulation [10]: implicated in p53 regulation
